From ChEMBL document CHEMBL3286093 (J Med Chem, 2014)
In brackets after ≈: the same amount, converted by molar mass. Activity calls are given as the source filed them. No cut-off for these calls is given here.

Key:
in vitro = details: human, HepG2 cells
Description: Selectivity ratio TC50 for human HepG2 cells to EC50 for Trypanosoma brucei brucei Lister 427

[1] = (§1) Cytotoxicity against human HepG2 cells after 48 hrs by Celltiter-Glo assay; assay type: cell-based; details: HepG2 cells, read-out: TC50
[2] = tested on: Trypanosoma brucei brucei; assay: microbe, parasite or virus in culture; details: Lister 427, 70 h
Description: Antitrypanosomal activity against bloodstream Trypanosoma brucei brucei Lister 427 after 70 hrs by resazurin assay

[3] = target: Phosphatidylinositol 4,5-bisphosphate 3-kinase catalytic subunit gamma isoform (Homo sapiens, UniProt P48736); assay: Inhibition of human PI3K-gamma assessed as inhibition of […] after 1 hr by TR-FRET analysis
Phosphatidylinositol 4,5-bisphosphate 3-kinase catalytic subunit gamma isoform, sequence (P48736 whole entry, canonical isoform): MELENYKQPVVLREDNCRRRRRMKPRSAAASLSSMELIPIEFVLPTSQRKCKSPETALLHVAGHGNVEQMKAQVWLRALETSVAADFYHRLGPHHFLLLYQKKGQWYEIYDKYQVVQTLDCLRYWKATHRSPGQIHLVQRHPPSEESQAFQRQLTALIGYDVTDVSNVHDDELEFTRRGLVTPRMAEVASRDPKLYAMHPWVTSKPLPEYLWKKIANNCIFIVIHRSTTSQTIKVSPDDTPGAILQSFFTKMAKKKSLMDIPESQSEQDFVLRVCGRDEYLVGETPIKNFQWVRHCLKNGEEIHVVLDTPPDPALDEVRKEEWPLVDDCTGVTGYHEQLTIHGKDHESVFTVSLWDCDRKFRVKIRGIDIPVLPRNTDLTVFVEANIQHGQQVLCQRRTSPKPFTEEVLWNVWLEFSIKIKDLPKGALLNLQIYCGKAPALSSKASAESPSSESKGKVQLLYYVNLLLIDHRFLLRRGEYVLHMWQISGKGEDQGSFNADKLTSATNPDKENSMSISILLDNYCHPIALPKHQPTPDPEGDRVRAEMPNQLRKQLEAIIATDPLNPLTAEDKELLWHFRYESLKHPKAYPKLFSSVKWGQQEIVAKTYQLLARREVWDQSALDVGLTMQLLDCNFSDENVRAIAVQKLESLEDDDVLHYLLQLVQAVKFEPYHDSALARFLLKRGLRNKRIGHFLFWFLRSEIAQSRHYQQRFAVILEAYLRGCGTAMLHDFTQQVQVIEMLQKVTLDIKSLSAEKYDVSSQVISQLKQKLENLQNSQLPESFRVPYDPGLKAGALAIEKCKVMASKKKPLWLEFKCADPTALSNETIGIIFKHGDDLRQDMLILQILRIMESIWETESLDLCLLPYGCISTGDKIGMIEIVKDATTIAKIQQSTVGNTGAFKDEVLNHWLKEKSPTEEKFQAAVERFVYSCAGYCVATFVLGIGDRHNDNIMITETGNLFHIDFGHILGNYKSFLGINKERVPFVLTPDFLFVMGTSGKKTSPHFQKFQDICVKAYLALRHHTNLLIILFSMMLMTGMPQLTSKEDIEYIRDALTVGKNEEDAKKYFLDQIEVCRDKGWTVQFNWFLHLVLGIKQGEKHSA

[4] = tested on: Trypanosoma brucei brucei; assay: Effect on phosphotidyl inositol level in Trypanosoma brucei brucei Lister 427 at 200 nM after 12 hrs by ES-MS analysis; assay type: functional, organism-based
[5] = Apparent permeability across artificial membrane after 3 hrs by HPLC analysis; assay type: physicochemical
[6] = Lipophilicity, log D of the compound at pH 7.4 by HPLC analysis; assay type: physicochemical; details: buffer
[7] = tested on: Trypanosoma brucei brucei; assay: Effect on phosphatidylcholine level in Trypanosoma brucei brucei Lister 427 at 200 nM after 12 hrs by ES-MS analysis; assay type: functional, organism-based
[8] = target: Phosphatidylinositol 4,5-bisphosphate 3-kinase catalytic subunit beta isoform (Homo sapiens, UniProt P42338); assay: Inhibition of human PI3K-beta assessed as inhibition of […] after 1 hr by TR-FRET analysis
Phosphatidylinositol 4,5-bisphosphate 3-kinase catalytic subunit beta isoform, sequence (P42338 whole entry, canonical isoform): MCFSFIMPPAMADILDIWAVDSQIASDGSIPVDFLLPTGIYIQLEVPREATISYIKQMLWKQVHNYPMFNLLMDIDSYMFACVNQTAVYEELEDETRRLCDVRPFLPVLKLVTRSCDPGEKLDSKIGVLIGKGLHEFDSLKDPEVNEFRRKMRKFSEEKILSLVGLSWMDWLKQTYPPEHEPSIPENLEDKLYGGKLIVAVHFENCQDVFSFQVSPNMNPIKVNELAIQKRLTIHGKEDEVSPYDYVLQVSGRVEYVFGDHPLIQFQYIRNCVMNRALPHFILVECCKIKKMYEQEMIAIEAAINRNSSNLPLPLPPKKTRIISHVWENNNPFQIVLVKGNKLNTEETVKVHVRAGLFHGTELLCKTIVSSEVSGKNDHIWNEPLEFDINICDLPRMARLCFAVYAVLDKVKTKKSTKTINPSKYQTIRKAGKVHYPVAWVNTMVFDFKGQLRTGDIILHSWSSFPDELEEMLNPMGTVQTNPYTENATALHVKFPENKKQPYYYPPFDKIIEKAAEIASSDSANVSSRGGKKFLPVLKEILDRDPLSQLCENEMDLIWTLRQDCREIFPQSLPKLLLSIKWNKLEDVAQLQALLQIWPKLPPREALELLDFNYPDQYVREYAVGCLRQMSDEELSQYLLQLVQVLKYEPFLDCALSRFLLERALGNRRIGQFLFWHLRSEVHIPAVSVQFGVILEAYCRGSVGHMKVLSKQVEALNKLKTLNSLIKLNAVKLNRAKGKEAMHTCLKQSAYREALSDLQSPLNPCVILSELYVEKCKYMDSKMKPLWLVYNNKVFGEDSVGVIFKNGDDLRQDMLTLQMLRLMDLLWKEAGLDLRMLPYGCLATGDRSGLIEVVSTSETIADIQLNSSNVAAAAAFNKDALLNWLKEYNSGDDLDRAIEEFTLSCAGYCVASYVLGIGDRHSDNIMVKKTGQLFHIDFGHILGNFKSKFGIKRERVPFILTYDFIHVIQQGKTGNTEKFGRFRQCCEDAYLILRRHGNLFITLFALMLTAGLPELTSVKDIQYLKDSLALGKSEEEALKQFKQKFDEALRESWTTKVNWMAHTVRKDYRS

[9] = tested on: Trypanosoma brucei brucei; assay: Decrease in phosphotidyl inositol phosphate level in Trypanosoma brucei brucei Lister 427 at 200 nM after 12 hrs by ES-MS analysis; assay type: functional, organism-based
[10] = target: T1, Phosphatidylinositol 4,5-bisphosphate 3-kinase catalytic subunit delta isoform (Homo sapiens, UniProt O00329); assay: Inhibition of human PI3K-delta assessed as inhibition of […] after 1 hr by TR-FRET analysis
T1 sequence (O00329 whole entry): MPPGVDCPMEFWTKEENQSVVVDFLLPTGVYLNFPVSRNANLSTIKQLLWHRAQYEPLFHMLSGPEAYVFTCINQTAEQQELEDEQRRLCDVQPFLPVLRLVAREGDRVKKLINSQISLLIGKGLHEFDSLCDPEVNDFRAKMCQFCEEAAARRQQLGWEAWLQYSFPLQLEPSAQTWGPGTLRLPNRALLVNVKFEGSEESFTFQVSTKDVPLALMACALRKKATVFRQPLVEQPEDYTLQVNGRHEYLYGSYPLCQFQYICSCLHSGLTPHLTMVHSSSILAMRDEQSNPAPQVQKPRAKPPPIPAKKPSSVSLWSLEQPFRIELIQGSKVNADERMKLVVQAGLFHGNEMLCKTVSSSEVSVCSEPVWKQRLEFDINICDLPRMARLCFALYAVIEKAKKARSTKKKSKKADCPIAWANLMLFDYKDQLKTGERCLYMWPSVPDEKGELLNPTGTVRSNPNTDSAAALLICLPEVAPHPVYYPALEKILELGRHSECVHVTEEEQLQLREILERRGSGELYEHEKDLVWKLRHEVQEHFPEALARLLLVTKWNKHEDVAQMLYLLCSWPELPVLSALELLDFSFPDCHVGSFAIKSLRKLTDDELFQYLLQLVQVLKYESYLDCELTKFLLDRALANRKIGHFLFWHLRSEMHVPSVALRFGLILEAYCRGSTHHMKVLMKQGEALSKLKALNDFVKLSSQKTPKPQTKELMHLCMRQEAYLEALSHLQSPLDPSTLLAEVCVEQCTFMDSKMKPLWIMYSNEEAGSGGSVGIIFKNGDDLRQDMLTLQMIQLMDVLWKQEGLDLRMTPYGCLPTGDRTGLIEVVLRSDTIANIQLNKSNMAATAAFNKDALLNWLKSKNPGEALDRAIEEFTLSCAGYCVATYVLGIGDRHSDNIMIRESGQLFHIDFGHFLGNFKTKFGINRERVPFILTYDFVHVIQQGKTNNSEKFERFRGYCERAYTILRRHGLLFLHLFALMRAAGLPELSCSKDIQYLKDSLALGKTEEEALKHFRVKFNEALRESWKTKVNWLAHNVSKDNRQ

[11] = tested on: Trypanosoma brucei brucei; assay: Effect on sphingomylein level in Trypanosoma brucei brucei Lister 427 at 200 nM after 12 hrs by ES-MS analysis; assay type: functional, organism-based
[12] = target: Serine/threonine-protein kinase mTOR (Homo sapiens, UniProt P42345); assay: Inhibition of human recombinant mTOR assessed as inhibition of 4EBP1 phosphorylation after 30 mins by TR-FRET analysis
[13] = tested on: Trypanosoma brucei brucei; assay: Antitrypanosomal activity against bloodstream Trypanosoma brucei brucei Lister 427 assessed as decrease in number of cell at G1 phase after 18 hrs by PI staining based flow cytometer; assay type: functional, organism-based
[14] = tested on: Trypanosoma brucei brucei; assay: Inhibition of receptor-mediated endocytosis in Trypanosoma brucei brucei Lister 427 assessed as decrease in transferrin uptake at 2 X EC50 after 18 hrs; assay type: functional, organism-based
[15] = target: Phosphatidylinositol 4,5-bisphosphate 3-kinase catalytic subunit alpha isoform (Homo sapiens, UniProt P42336); assay: Inhibition of human PI3K-alpha assessed as inhibition of […] after 1 hr by TR-FRET analysis
Phosphatidylinositol 4,5-bisphosphate 3-kinase catalytic subunit alpha isoform, sequence (P42336 whole entry, canonical isoform): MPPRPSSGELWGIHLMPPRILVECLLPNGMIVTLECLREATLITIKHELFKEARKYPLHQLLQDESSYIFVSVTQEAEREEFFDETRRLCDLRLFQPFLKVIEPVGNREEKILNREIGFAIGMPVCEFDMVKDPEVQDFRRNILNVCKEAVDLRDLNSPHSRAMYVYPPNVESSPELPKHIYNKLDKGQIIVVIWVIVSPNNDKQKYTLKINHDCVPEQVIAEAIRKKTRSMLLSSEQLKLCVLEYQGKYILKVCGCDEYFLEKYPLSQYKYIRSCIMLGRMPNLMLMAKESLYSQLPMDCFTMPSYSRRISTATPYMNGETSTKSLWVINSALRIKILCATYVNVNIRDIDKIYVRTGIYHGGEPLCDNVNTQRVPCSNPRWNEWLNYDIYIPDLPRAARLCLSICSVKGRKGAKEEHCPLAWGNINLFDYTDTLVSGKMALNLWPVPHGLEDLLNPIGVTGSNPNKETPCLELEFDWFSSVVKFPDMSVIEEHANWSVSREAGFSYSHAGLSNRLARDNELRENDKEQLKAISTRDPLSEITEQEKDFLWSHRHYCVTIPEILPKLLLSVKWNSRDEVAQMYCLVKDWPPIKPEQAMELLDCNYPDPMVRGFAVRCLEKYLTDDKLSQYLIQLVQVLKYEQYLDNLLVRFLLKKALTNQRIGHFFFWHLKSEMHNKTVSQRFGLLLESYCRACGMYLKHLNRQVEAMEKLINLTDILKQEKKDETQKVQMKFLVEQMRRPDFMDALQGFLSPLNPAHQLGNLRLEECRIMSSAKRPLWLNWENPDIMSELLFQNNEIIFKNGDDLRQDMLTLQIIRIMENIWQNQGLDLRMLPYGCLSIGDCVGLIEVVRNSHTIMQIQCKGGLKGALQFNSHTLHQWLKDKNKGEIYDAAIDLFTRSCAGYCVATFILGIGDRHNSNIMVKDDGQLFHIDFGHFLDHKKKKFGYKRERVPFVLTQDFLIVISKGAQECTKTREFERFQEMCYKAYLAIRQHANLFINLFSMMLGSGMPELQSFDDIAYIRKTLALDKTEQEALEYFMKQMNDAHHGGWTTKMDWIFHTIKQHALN

HepG2 = assay: as §1; assay type: cell-based; details: hepg2, 48 h
[16] = Solubility of compound in phosphate buffer at pH 7.4 after 1 hr; assay type: physicochemical

| SMILES | selectivity ratio (in vitro) | CC50 at 48 h [1] | EC50 [2] | also measured |
| --- | --- | --- | --- | --- |
| N#Cc1ccc(-n2c(=O)[nH]c3cnc4ccc(-c5cnc6ccccc6c5)cc4c32)cc1 | > 270 | > 50000 nM | 184 nM | – |
| Cn1c(=O)n(-c2ccc(C(C)(C)C#N)cc2)c2c3cc(-c4cc5ccccc5s4)ccc3ncc21 | > 460 | > 25000 nM | 54 nM | – |
| Cn1cc(-c2ccc3ncc4c(c3c2)n(-c2ccc(C(C)(C)C#N)cc2)c(=O)n4C)cn1 | – | – | 51 nM | IC50 [3]: 126 nM; Activity [4]: Active; permeability [5]: ND(Insoluble); logD [6]: 5.3; Activity [7]: inactive; IC50 [8]: 7940 nM; inhibition [9]: Active; IC50 [10]: 794 nM; Activity [11]: inactive; IC50 [12]: 1170 nM; inhibition [13]: Active; inhibition [14]: inactive; IC50 [15]: 398 nM |
| Cn1c(=O)n(-c2ccc(C(C)(C)C#N)cc2)c2c3cc(-c4cnc5ccccc5c4)ccc3ncc21 [DACTOLISIB] | – | – | – | Activity [4]: Active; permeability [5]: ND(Insoluble); logD [6]: 6.44; Activity [7]: inactive; inhibition [9]: Active; TC50 (HepG2): ND(Insoluble); Activity [11]: inactive; solubility kinetic at 1 h [16]: 19 µM (≈ 8.92 µg/mL); inhibition [13]: inactive; inhibition [14]: Active |
| CC(=O)Nc1ccc2ncc3c(c2c1)n(-c1ccc(C(C)(C)C#N)cc1)c(=O)n3C | > 5 | > 50000 nM | 9020 nM | – |
| Cn1c(=O)n(-c2ccc(C(C)(C)C#N)cc2)c2c3cc(N4CCOCC4)ccc3ncc21 | > 24 | > 50000 nM | 2040 nM | – |
| Cn1c(=O)n(-c2ccc(C#N)cc2)c2c3cc(-c4ccncc4)ccc3ncc21 | – | – | 72 nM | TC50 (HepG2): ND(Insoluble) |
| Cn1c(=O)n(-c2ccccc2)c2c3cc(-c4cnc5ccccc5c4)ccc3ncc21 | > 1000 | > 25000 nM | 24 nM | – |
| Cn1c(=O)n(-c2ccc(CC#N)cc2)c2c3cc(-c4ccncc4)ccc3ncc21 | > 560 | > 50000 nM | 88 nM | – |
| Cc1ccc2ncc3c(c2c1)n(-c1ccccc1)c(=O)n3C | > 39 | > 50000 nM | 1300 nM | – |
| Cc1ccc(-n2c(=O)n(C)c3cnc4ccc(-c5ccncc5)cc4c32)cc1 | 24 | 4780 nM | 202 nM | IC50 [3]: 251 nM; Activity [4]: Active; permeability [5]: 47 ×10⁻⁶ cm/s; logD [6]: 4.95; Activity [7]: inactive; IC50 [8]: 31600 nM; inhibition [9]: Active; IC50 [10]: 2510 nM; Activity [11]: inactive; solubility kinetic at 1 h [16]: 17 µM (≈ 6.23 µg/mL); IC50 [12]: 468 nM; inhibition [13]: inactive; inhibition [14]: Active; IC50 [15]: 631 nM |
| CN1CCN(Cc2ccc(-n3c(=O)n(C)c4cnc5ccc(-c6ccncc6)cc5c43)cc2)CC1 | > 2 | > 7600 nM | 3350 nM | – |
| Cn1c(=O)n(-c2ccc(C(C)(C)C#N)cc2)c2c3cc(-c4ccncc4)ccc3ncc21 | 25 | 3430 nM | 136 nM | – |
| Cn1c(=O)n(-c2ccc(C(C)(C)C#N)cc2)c2c3ccccc3ncc21 | > 80 | > 50000 nM | 624 nM | IC50 [3]: 2000 nM; permeability [5]: 57 ×10⁻⁶ cm/s; logD [6]: 4.69; IC50 [8]: > 30000 nM; IC50 [10]: 15800 nM; IC50 [12]: 1620 nM; IC50 [15]: 3980 nM |
| Cn1c(=O)n(C)c2c3cc(-c4ccncc4)ccc3ncc21 | > 6 | > 20000 nM | 3270 nM | – |
| Cn1c(=O)n(-c2ccc(C(C)(C)C#N)cc2)c2c3cc(-c4ccccc4)ccc3ncc21 | 11 | 1820 nM | 159 nM | – |
| Cn1c(=O)n(-c2ccc(C(C)(C)C#N)cc2)c2c3cc(C#Cc4cccnc4)ccc3ncc21 | 17.5 | 140 nM | 8 nM | – |

| SMILES | selectivity ratio (in vitro) | CC50 at 48 h [1] | EC50 [2] | also measured |
| --- | --- | --- | --- | --- |
| CN(C)c1ccc(-n2c(=O)n(C)c3cnc4ccc(-c5ccncc5)cc4c32)cc1 | 28 | 2340 nM | 82 nM | – |
| Cn1c(=O)n(-c2ccc(C(C)(C)C#N)cc2)c2c3cc(-c4cccnc4)ccc3ncc21 | 36 | 575 nM | 16 nM | – |
| Cn1c(=O)n(-c2ccc(C#N)cc2)c2c3cc(-c4cnc5ccccc5c4)ccc3ncc21 | > 540 | > 50000 nM | 91 nM | – |
| CN(C)c1ccc(-n2c(=O)[nH]c3cnc4ccccc4c32)cc1 | 3 | 19000 nM | 6240 nM | – |
| COc1ccc(-n2c(=O)n(C)c3cnc4ccc(-c5ccncc5)cc4c32)cc1 | 67 | 11200 nM | 166 nM | IC50 [3]: 316 nM; Activity [4]: Active; permeability [5]: 86 ×10⁻⁶ cm/s; logD [6]: 5.32; Activity [7]: inactive; IC50 [8]: 7940 nM; inhibition [9]: Active; IC50 [10]: 2510 nM; Activity [11]: inactive; solubility kinetic at 1 h [16]: 22 µM (≈ 8.41 µg/mL); IC50 [12]: 380 nM; inhibition [13]: inactive; inhibition [14]: Active; IC50 [15]: 501 nM |
| CN(C)c1ccc(-n2c(=O)[nH]c3cnc4ccc(-c5ccncc5)cc4c32)cc1 | > 1100 | > 50000 nM | 42 nM | – |
| N#CCc1ccc(-n2c(=O)[nH]c3cnc4ccc(-c5ccncc5)cc4c32)cc1 | > 250 | > 50000 nM | 199 nM | – |
| Cn1c(=O)n(-c2ccccc2)c2c3ccccc3ncc21 | > 3 | > 50000 nM | 18500 nM | – |
| Cc1ccc(-n2c(=O)n(C)c3cnc4ccc(-c5ccc(C(=O)O)cc5)cc4c32)cc1 | > 5 | > 50000 nM | 9890 nM | – |
| Cn1c(=O)n(-c2ccc(C(C)(C)C#N)cc2)c2c3cc(-c4ccc(C(F)(F)F)nc4)ccc3ncc21 | > 470 | > 25000 nM | 53 nM | – |
| CN(C)c1ccc(-n2c(=O)n(C)c3cnc4ccccc4c32)cc1 | 0.3 | 3000 nM | 9330 nM | – |
| Cn1c(=O)n(-c2ccc(C(C)(C)C#N)cc2)c2c3cc(N)ccc3ncc21 | > 4 | > 50000 nM | 10600 nM | – |
| Cn1c(=O)n(-c2ccc(C(F)(F)F)cc2)c2c3cc(-c4cnc5ccccc5c4)ccc3ncc21 | > 240 | > 25000 nM | 103 nM | – |
| Cn1c(=O)n(-c2ccc(N3CCOCC3)cc2)c2c3cc(-c4ccncc4)ccc3ncc21 | > 24 | > 7600 nM | 316 nM | – |
| CN1CCN(c2ccc3ncc4c(c3c2)n(-c2ccc(C(C)(C)C#N)cc2)c(=O)n4C)CC1 | – | > 50000 nM | – | – |
| Cc1ccc2ncc3c(c2c1)n(-c1ccc(C(C)(C)C#N)cc1)c(=O)n3C | > 10 | > 20000 nM | 2020 nM | – |
